Each structure is given as a SMILES string.

This note sets out measurements from patent US8552002B2 (Novartis AG, priority 2004, dated 2013).

Assay [1] addresses T1, wild type Bcr-abl (Homo sapiens, UniProt P00519).
T1 construct: the major C-terminal part (exons 2-11) of the c-abl gene; expressed in transfected cells; host or cells: murine 32D (32D-p210) or Ba/F3 cells; the other entry of the earlier key: BCR (P11274, Breakpoint cluster region protein)
Nature of the assay: Antiproliferative effect on cells expressing wild type Bcr-abl. Type of assay: cell-based. The settings on record: cell proliferation. Here is the method: 32D-p210 cells are plated into 96 well TC plates at a density of 15,000 cells per well. 50 μL of two fold serial dilutions of the test compound (Cmax is 40 μM) are added to each well (STI571 is included as a positive control). After incubating the cells for 48 hours at 37° C., 5% CO2, 15 μL of MTT (Promega) is added to each well and the cells are incubated for an additional 5 hours. The optical density at 570 nm is quantified spectrophotometrically and IC50 values, the concentration of compound required for 50% inhibition, determined from a dose response curve.
Compounds of the invention are tested for their antiproliferative effect on Ba/F3 cells expressing either wild type or the mutant forms of BCR-Abl (G250E, E255V, T315I, F317L, M351T) that confers resistance or diminished sensitivity to STI571. The antiproliferative effect of these compounds on the mutant-BCR-Abl expressing cells and on the non transformed cells were tested at 10, 3.3, 1.1 and 0.37 μM as described above (in media lacking IL3). The IC50 values of the compounds lacking toxicity on the untransformed cells were determined from the dose response curves obtained as describe above.

In assay [2] the target is PDGFRβ (Homo sapiens, UniProt P09619). Nature of the assay: Inhibition of PDGFRβ. Format: biochemical. Here is the method: Compounds selectively inhibiting the proliferation of these BCR-Abl transformed cells are tested for anti-proliferative activity on Ba/F3 cells expressing either wild type or the mutant forms of Bcr-abl. In addition, compounds are assayed to measure their capacity to inhibit FGFR35 (in an enzyme and cellular assay), FLT3, PDGFRβ, trkB, c-SRC, BMX, SGK, Tie2, Lck, JNK2α2, MKK4, c-RAF, MKK6, SAPK2α and SAPK2β kinases.
PDGFRβ, sequence (P09619 33-1106, species assumed): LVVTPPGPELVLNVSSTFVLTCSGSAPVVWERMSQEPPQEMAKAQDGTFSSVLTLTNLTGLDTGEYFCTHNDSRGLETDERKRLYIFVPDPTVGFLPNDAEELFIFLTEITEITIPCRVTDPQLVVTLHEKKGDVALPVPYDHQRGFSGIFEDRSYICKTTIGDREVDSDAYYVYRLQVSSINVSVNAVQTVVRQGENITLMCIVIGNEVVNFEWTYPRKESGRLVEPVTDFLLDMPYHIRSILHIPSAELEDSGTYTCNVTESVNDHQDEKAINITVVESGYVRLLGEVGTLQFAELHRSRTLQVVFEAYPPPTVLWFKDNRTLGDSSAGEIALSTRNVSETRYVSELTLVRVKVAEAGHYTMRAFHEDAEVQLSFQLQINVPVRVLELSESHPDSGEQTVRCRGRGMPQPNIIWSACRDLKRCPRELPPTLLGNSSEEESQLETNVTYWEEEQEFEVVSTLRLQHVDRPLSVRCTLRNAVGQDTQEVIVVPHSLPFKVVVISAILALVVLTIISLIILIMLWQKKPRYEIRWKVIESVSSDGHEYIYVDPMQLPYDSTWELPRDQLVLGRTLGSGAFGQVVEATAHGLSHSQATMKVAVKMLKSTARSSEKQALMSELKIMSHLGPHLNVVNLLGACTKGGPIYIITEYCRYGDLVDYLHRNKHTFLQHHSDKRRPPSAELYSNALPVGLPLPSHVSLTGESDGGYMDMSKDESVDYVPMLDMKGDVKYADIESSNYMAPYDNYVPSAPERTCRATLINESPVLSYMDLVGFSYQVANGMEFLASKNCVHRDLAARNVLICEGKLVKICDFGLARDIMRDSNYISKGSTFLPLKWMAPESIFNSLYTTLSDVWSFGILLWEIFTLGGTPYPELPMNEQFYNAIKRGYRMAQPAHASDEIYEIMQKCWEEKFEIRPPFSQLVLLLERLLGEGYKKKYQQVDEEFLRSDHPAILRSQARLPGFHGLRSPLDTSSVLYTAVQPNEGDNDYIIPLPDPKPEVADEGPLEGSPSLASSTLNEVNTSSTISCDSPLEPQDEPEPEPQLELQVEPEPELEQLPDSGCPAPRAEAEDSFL

The target of assay [3] is T2, FGFR35 (Homo sapiens, UniProt P22607). Nature of the assay: FGFR35 (enzymatic assay), HTRF. Format: biochemical. On the set-up: purchased Upstate. The settings on record: purified FGFR35, 3 μM ATP; read-out: IC50 for the FGFR35 enzyme assay. How it is done: Kinase activity assay with purified FGFR35 (Upstate) is carried out in a final volume of 10 μL containing 0.25 μg/mL of enzyme in kinase buffer (30 mM Tris-HCl pH7.5, 15 mM MgCl2, 4.5 mM MnCl2, 15 μM Na3VO4 and 50 μg/mL BSA), and substrates (5 μg/mL biotin-poly-EY(Glu, Tyr) (CIS-US, Inc.) and 3 μM ATP). Two solutions are made: the first solution of 5 μl contains the FGFR35 enzyme in kinase buffer was first dispensed into 384—format ProxiPlate® (Perkin-Elmer) followed by adding 50 nL of compounds dissolved in DMSO, then 5 μl of second solution contains the substrate (poly-EY) and ATP in kinase buffer was added to each wells. The reactions are incubated at room temperature for one hour, stopped by adding 10 μL of HTRF detection mixture, which contains 30 mM Tris-HCl pH7.5, 0.5 M KF, 50 mM ETDA, 0.2 mg/mL BSA, 15 μg/mL streptavidin-XL665 (CIS-US, Inc.) and 150 ng/mL cryptate conjugated anti-phosphotyrosine antibody (CIS-US, Inc.). After one hour of room temperature incubation to allow for streptavidin-biotin interaction, time resolved florescent signals are read on Analyst GT (Molecular Devices Corp.). IC50 values are calculated by linear regression analysis of the percentage inhibition of each compound at 12 concentrations (1:3 dilution from 50 μM to 0.28 nM).
Background: TR-FRET usually uses a lanthanide donor and a delayed reading to cut background.
Target sequence in this assay (P22607 23-806): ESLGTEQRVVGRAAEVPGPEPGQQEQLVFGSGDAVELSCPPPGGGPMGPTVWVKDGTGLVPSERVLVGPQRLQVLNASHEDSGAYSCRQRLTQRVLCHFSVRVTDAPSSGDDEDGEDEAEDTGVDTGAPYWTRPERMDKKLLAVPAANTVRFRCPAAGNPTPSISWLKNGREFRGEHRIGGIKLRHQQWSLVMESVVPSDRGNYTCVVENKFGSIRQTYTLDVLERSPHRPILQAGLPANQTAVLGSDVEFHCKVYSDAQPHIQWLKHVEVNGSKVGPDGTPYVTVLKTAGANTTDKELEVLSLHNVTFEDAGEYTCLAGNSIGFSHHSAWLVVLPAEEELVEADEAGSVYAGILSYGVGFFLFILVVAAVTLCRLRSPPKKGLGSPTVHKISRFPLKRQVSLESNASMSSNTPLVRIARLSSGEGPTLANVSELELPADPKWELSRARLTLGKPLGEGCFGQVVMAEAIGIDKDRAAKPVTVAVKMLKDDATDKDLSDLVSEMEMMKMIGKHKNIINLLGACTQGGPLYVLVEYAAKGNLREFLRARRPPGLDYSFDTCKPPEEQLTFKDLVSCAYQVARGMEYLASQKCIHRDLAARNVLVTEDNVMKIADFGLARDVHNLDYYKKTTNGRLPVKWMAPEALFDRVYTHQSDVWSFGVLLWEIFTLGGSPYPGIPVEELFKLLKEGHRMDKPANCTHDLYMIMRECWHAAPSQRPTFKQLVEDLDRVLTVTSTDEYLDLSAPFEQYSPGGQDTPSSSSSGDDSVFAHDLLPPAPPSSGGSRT

The target of assay [4] is T2, FGFR35. Nature of the assay: FGFR35 (cellular assay), proliferation of Ba/F3-TEL-FGFR35 cells. Type of assay: cell-based. On the set-up: fused on or other part: N-terminal part of TEL (ETV6), which acts as the oligomerising partner; it is fused to the part of FGFR3 that carries the kinase; P41212 (Transcription factor ETV6). The following applies: 48 hours, read-out: IC50 for the FGFR35 cellular assay. How it is done: Compounds of the invention are tested for their ability to inhibit transformed Ba/F3-TEL-FGFR35 cells proliferation, which is depended on FGFR35 cellular kinase activity. Ba/F3-TEL-FGFR35 are cultured up to 800,000 cells/mL in suspension, with RPMI 1640 supplemented with 10% fetal bovine serum as the culture medium. Cells are dispensed into 384-well format plate at 5000 cell/well in 50 μL culture medium. Compounds of the invention are dissolved and diluted in dimethylsulfoxide (DMSO). Twelve points 1:3 serial dilutions are made into DMSO to create concentrations gradient ranging typically from 10 mM to 0.05 μM. Cells are added with 50 nL of diluted compounds and incubated for 48 hours in cell culture incubator. AlamarBlue® (TREK Diagnostic Systems), which can be used to monitor the reducing environment created by proliferating cells, are added to cells at final concentration of 10%. After additional four hours of incubation in a 37° C. cell culture incubator, fluorescence signals from reduced AlamarBlue® (Excitation at 530 nm, Emission at 580 nm) are quantified on Analyst GT (Molecular Devices Corp.). IC50 values are calculated by linear regression analysis of the percentage inhibition of each compound at 12 concentrations.
Target sequence in this assay (P22607 472-761 limits assumed, stated change not applied): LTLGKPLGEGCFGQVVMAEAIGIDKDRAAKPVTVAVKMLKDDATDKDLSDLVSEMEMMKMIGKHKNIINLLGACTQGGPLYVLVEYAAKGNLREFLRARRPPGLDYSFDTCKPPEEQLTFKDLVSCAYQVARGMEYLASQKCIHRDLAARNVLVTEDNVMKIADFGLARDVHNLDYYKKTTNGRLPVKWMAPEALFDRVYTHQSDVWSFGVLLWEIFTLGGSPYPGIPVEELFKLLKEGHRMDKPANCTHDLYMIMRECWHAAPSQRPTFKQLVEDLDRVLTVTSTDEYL

T1 sequence (P00519 with tags, fused parts or gaps): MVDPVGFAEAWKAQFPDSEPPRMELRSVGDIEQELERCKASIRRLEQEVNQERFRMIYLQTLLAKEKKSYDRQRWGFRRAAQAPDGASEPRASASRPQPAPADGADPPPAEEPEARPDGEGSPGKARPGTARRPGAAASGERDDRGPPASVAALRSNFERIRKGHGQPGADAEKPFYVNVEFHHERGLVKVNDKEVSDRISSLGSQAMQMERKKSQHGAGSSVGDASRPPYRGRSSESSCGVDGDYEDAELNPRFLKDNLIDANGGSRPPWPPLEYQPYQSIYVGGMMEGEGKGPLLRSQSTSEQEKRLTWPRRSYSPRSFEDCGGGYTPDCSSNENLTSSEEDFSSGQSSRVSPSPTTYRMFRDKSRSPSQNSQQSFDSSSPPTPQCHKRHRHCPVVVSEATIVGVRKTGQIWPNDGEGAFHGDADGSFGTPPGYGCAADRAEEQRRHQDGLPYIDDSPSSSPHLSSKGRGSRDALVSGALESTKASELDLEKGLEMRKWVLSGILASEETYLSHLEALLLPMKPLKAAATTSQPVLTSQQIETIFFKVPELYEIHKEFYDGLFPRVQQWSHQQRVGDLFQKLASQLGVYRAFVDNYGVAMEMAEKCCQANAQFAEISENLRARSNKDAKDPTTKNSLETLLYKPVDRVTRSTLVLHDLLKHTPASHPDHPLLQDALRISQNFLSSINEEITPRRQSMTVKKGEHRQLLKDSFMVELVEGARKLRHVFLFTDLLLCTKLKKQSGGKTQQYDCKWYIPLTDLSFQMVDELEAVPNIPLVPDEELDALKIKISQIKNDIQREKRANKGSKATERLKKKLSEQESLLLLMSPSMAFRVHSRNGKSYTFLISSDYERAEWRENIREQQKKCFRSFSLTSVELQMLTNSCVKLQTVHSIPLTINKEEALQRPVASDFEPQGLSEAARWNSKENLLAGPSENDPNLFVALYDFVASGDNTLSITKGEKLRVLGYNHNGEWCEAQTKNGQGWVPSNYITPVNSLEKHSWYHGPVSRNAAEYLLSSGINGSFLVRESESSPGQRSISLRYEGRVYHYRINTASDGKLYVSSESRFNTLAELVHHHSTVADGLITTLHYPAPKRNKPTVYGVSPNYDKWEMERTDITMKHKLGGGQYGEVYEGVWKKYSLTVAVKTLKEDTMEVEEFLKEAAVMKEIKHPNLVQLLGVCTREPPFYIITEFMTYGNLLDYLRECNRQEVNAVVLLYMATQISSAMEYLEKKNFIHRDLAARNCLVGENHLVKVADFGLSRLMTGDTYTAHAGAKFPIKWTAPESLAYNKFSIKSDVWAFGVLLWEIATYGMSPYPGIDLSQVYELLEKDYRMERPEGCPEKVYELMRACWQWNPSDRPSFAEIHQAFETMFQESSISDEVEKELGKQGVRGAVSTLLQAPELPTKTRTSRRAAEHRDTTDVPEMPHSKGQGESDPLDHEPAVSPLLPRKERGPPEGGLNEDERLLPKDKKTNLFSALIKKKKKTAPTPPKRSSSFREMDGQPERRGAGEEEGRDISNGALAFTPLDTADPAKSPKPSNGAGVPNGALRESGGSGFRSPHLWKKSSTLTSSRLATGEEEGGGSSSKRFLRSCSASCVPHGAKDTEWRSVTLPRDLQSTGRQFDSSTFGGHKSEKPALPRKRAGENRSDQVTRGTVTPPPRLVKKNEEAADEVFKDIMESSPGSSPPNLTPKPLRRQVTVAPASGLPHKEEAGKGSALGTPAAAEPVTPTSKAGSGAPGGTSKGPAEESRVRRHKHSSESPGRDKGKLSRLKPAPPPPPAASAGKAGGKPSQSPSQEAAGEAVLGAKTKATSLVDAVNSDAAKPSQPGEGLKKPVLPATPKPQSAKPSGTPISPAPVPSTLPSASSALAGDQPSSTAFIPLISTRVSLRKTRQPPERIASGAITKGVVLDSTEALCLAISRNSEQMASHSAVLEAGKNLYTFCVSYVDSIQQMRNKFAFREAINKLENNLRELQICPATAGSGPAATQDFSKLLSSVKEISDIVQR

Broadly, the IC50 is the concentration that gives 50% inhibition. As to `Cc1ccc(NC(=O)c2cccc(C(F)(F)F)c2)cc1NC(=O)N(CCN1CCOCC1)c1cc(N)ncn1` [Example 214, N-{3-[3-(6-Amino-pyrimidin-4-yl)-3-(2-morpholin-4-yl-ethyl)-ureido]-4-methyl-phenyl}-3-trifluoromethyl-benzamide], the IC50 amounted to 14.9 nM in assay [1], 0.4 nM in assay [2] and 65 nM in assay [3]. Besides, the GI50 in assay [4] was found to be 49 nM.
